Results published in ChEMBL document CHEMBL1151002, “Potent, selective, water-soluble benzodiazepine-based CCKB receptor antagonists that contain lipophilic carboxylate surrogates” (Bioorg Med Chem Lett, 1995).
≈ marks a conversion by molar mass, not a printed value.

Tests used:
[1] = Solubility at a pH 7.4; assay type: physicochemical; details: buffer, read-out: S
[2] = Log D is the log of the ratio of concentrations in each phase obtained from partitioning between octanol and 100 mM KH2PO4 buffer at pH 7.4.; assay type: physicochemical; details: octanol/100 mM KH2PO4 buffer
Rattus norvegicus [3] = test: Compound was evaluated for its penetration into blood-brain barrier measured by its level in rat brain after an intravenous dose of 3 mg/kg after 30 min; assay type: functional, organism-based; set-up: dose 3 mg/kg
[4] = Compound was evaluated for its solubility at a pH 7.4; assay type: ADME; details: buffer
Rattus norvegicus [5] = test: Compound was evaluated for its penetration into blood-brain barrier measured by its level in rat brain after an intravenous dose of 3 mg/kg after 10 min; assay type: functional, organism-based; set-up: dose 3 mg/kg
Rattus norvegicus [6] = test: Compound was evaluated for its penetration into blood-brain barrier measured by its level in rat brain after an intravenous dose of 3 mg/kg after 1 min; assay type: functional, organism-based; set-up: dose 3 mg/kg
Rattus norvegicus [7] = organism: Rattus norvegicus; test: In vitro antagonistic activity for single-cell firing in a slice preparation of the rat ventromedial hyphalamic nucleus; assay type: functional
[8] = Oral bioavailability in rat; assay type: ADME, organism-based; details: in vivo, read-out: Bioavailabiility
[9] = Ratio between CCKB and CCKA receptor binding affinity was measured by displacement of [125I]CCK from guinea pig cortical membranes and rat pancreatic tissues respectively

Row | SMILES | solubility [1] [µg/mL] | logD [2] | Selectivity [9] | further results
1 | CC(C)S(=O)(=O)NC(=O)c1cccc(NC(=O)NC2N=C(C3CCCCC3)c3ccccc3N(C)C2=O)c1 (stereo not given) | 740 (≈ 1370 µM) | 0.85 |  | 
2 | CN1C(=O)C(NC(=O)Nc2cccc(C(=O)O)c2)N=C(C2CCCCC2)c2ccccc21 (stereo not given) | 1050 (≈ 2420 µM) | 0.89 | 2 | 
3 | Cc1cccc(NC(=O)N[C@@H]2N=C(C3CCCCC3)c3ccccc3N(C)C2=O)c1 | < 0.01 | > 4 | 6500 | 
4 | CC(C)S(=O)(=O)NC(=O)c1cccc(NC(=O)N[C@@H]2N=C(C3CCCCC3)c3ccccc3N(C)C2=O)c1 | 1160 (≈ 2150 µM) |  |  | 
5 | CC(=O)NS(=O)(=O)c1cccc(NC(=O)NC2N=C(C3CCCCC3)c3ccccc3N(C)C2=O)c1 (stereo not given) | 260 (≈ 508 µM) | 0.72 | 53 | 

Now from value to molecule, other results behind:

Row | solubility [1] [µg/mL] | logD [2] | Selectivity [9] | SMILES | further results
6 |  | 0.34 |  | CN1C(=O)C(NC(=O)Nc2cccc(C(=O)NS(C)(=O)=O)c2)N=C(C2CCCCC2)c2ccccc21 (stereo not given) | Level (Rattus norvegicus [3]): 91 ng/g; solubility [4]: 1300 µg/mL (≈ 2540 µM); Level (Rattus norvegicus [5]): 344 ng/g; Level (Rattus norvegicus [6]): 836 ng/g
7 | 50 (≈ 87.2 µM) | 1.78 |  | CN1C(=O)C(NC(=O)Nc2cccc(S(=O)(=O)NC(=O)c3ccccc3)c2)N=C(C2CCCCC2)c2ccccc21 (stereo not given) | Kb (Rattus norvegicus [7]): 1.2 nM; bioavailability [8]: 14%; Level (Rattus norvegicus [3]): 72 ng/g; Level (Rattus norvegicus [5]): 120 ng/g; Level (Rattus norvegicus [6]): 222 ng/g
8 |  | 1.42 | 19 | CN1C(=O)C(NC(=O)Nc2cccc(C(=O)NS(=O)(=O)c3ccccc3)c2)N=C(C2CCCCC2)c2ccccc21 (stereo not given) | 
9 | 370 (≈ 645 µM) |  | > 8000 | CN1C(=O)[C@H](NC(=O)Nc2cccc(C(=O)NS(=O)(=O)c3ccccc3)c2)N=C(C2CCCCC2)c2ccccc21 | 
10 | 410 (≈ 698 µM) | 2 |  | Cc1ccccc1S(=O)(=O)NC(=O)c1cccc(NC(=O)N[C@@H]2N=C(C3CCCCC3)c3ccccc3N(C)C2=O)c1 | 
